For 21 compounds, IC50 results are on record in patent US20230203060A1 (GENFLEET THERAPEUTICS (SHANGHAI) INC., priority 2020, published 2023).

Each structure is given as a SMILES string. Counter-ions that a name gives are not always drawn.

The subject of this experiment is KRAS G12C mutant NCI-H358 cells. In words: Cell proliferation inhibition experiment, 3D spheroid, CellTiter-Glo, NCI-H358. In kind it is cell-based, human. As to conditions: Homo sapiens, NCI-H358, 120 h, NCI-H358 (KRAS G12C mutant) 3D spheroid, 5 days with compound, CellTiter-Glo; read-out: H358 IC50. The text has this:
Raw materials and instruments: NCI-H358 purchased from ATCC; article number: CRL-5807; batch number: 70010825; A549 purchased from ATCC; article number: CCL-185; batch number: 70007820; RPMI1640 purchased from Gibco; article number: 11875-093; batch number: 2152748; F-12K purchased from Gibco; article number: 21127-022; batch number: 2185853; FBS purchased from Gibco; article number: 10099-141; batch number: 2109290CP; PS purchased from Gibco; article number: 15140-122; batch number: 2145451; Trypsin-EDTApurchased from Gibco; article number: 25200-072; batch number: 2085552; CellTiter Glo working solution purchased from Promega; article number: G9683; batch number: 398478; DMSO purchased from VWR AMRESCO; article number: 0231-500ML; batch number: 18C0656168; 384-well spheroid plate purchased from Corning; article number: 3830; batch number: 27519032; white opaque 384-well plate purchased from Corning; article number: 3570; batch number: 26819023; microplate reader purchased from PerkinElmer; model: Envision MLD2105-0020; equipment number 1050369.
NCI-H358 is a KRAS G12C mutant human non-small cell lung cancer cell line, cultured in 10% FBS RPMI-1640+1% PS culture medium; and A549 is a KRAS G12S mutant human lung adenocarcinoma cell line, cultured in 10% FBS F-12K+1% PS culture medium. Cells at logarithmic growth stage were taken, digested with trypsin-EDTA, then collected and counted. H358 was adjusted to 1.8 E4 cells/mL with 2% FBS RPMI-1640 culture medium, and A549 was adjusted to 8.9 E3 cells/mL with 2% FBS F-12K culture medium; 800 (45 μL) H358 or 400 (45 μL) A549 were inoculated respectively in a 384-well spheroid plate and cultured overnight to establish a 3D cell model. A 3.16-fold gradient concentration stock solution of 1000× compound was prepared with DMSO, and diluted 100-fold to 10× compound stock solution with 2% FBS culture medium. On the second day after cell inoculation, 5 μL of 10× compound stock solution was added to each cell culture well, with a final concentration of 1× and a DMSO content of 0.1%. DMSO was used as experimental control (control), and 2% FBS culture medium was used as blank control (blank). After 5 days of compound cell culture, 25 μL of CellTiter-Glo working solution was added to each well, mixed well at 400 rpm and incubated for 30 minutes. After standing at room temperature for 30 minutes, 40 μL of the mixed solution was transferred to a white opaque 384-well plate, and the luminescence chemiluminescence value was read with a microplate reader. The cell proliferation inhibition rate IR (%)=(RLU control -RLU compound)/(RLU control -RLU blank) x100% was calculated. The gradient dilution concentration of the compound and the corresponding cell proliferation inhibition rate were fitted by Prism 6 four-parameter method, and the IC50 value was calculated. The inhibitory activity of the compounds prepared in the above embodiments of the present disclosure on KRAS G12C mutant NCI-H358 cells was 0.0001 μM to 0.5 μM; the inhibitory activity of some compounds on KRAS G12C mutant NCI-H358 cells was 0.001 μM to 0.1 μM or 0.001 μM to 0.05 μM.
Consider `C=CC(=O)N1CCN2C(=O)c3c(N4CCN(C5COC5)C[C@H]4C)nc(-c4c(O)cccc4F)c(Cl)c3OC[C@H]2C1` (single isomer, unassigned) [Z239-2], for which the IC50 is 55.8 nM.

For the compound `C=CC(=O)N1CCN2C(=O)c3c(N4C[C@H](O)CC4(C)C)nc(-c4c(O)cccc4F)c(F)c3OC[C@H]2C1` (single isomer, unassigned) [Z256-2], the 50% inhibitory concentration (IC50) is 27 nM.

`C=CC(=O)N1CCN2C(=O)c3c(N4Cc5cnn(C)c5[C@@H]4C)nc(-c4c(O)cccc4F)c(Cl)c3OC[C@H]2C1` (single isomer, unassigned) [Z292S, trifluoroacetate]: the IC50 worked out at 37.3 nM.

Turning to `C=CC(=O)N1CCN2C(=O)C3=C(OC[C@H]2C1)C(C)=C(c1c(O)cccc1F)CN3N1C[C@@H](O)CC1(C)C` (single isomer, unassigned) [Z336-1], the 50% inhibitory concentration (IC50) is 43 nM.

As to `C=CC(=O)N1CCN2C(=O)c3c(N4Cc5nn(C)cc5[C@H]4C)nc(-c4c(O)cccc4F)c(Cl)c3OC[C@H]2C1` (single isomer, unassigned) [Z345-1], the half-maximal inhibitory concentration (IC50) stood at 45.2 nM.

On to `C=CC(=O)N1CCN2C(=O)c3c(N4CCOCC45CCC5)nc(-c4c(O)cccc4F)c(Cl)c3OC[C@H]2C1` [Z90, (6aR)-8-acryloyl-4-chloro-3-(2-fluoro-6-hydroxyphenyl)-1-(8-oxa-5-azaspiro[3.5]nonan-5-yl)-6,6a,7,8,9,10-hexahydro-12H-pyrazino[2,1-c]pyrido[3,4-f][1,4]oxazepin-12-one], for which the half-inhibitory concentration (IC50) was found to be 19 nM.

For `C=CC(=O)N1CCN2C(=O)c3c(N4CCCC(C)C4C)nc(-c4c(O)cccc4F)c(Cl)c3OC[C@H]2C1` (stereo partly drawn) [Z99, (6aR)-8-acryloyl-4-chloro-1-(2,3-dimethylpiperidin-1-yl)-3-(2-fluoro-6-hydroxyphenyl)-6,6a,7,8,9,10-hexahydro-12H-pyrazino[2,1-c]pyrido[3,4-f][1,4]oxazepin-12-one], the concentration for half-maximal inhibition (IC50) was 26.3 nM.

With `C=CC(=O)N1CCN2C(=O)c3c(OCC4N(C)CCC4(C)C)nc(-c4c(O)cccc4F)c(Cl)c3OC[C@H]2C1` (stereo partly drawn) [Z110, (6aR)-8-acryloyl-4-chloro-1-((1,3,3-trimethyltetrahydropyrrol-2-yl)methoxy)-3-(2-fluoro-6-hydroxyphenyl)-6,6a,7,8,9,10-hexahydro-12H-pyrazino[2,1-c]pyrido[3,4-f][1,4]oxazepin-12-one], the IC50 was found to be 44.9 nM.

With `C=CC(=O)N1CCN2C(=O)c3c(N4CCOC(C)(C)C4)nc(-c4c(C)ccc5[nH]ncc45)c(F)c3OC[C@H]2C1` [Z238, (6aR)-8-acryloyl-1-(2,2-dimethylmorpholino)-4-fluoro-3-(5-methyl-1H-indazol-4-yl)-6,6a,7,8,9,10-hexahydro-12H-pyrazino[2,1-c]pyrido[3,4-f][1,4]oxazepin-12-one], the IC50 turned out to be 285 nM.

Consider `C=CC(=O)N1CCN2C(=O)c3c(N4C[C@@H](C)N(C)[C@@H](C)C4)nc(-c4c(O)cccc4F)c(Cl)c3OC[C@H]2C1` [Z246, (6aR)-8-acryloyl-4-chloro-3-(2-fluoro-6-hydroxyphenyl)-1-((3S,5R)-3,4,5-trimethylpiperazin-1-yl)-6,6a,7,8,9,10-hexahydro-12H-pyrazino[2,1-c]pyrido[3,4-f][1,4]oxazepin-12-one], for which the half-maximal inhibitory concentration (IC50) was 35 nM.

On to `C=CC(=O)N1CCN2C(=O)c3c(N4C[C@H](C)O[C@@H](C)C4)nc(-c4c(O)cccc4F)c(Cl)c3OC[C@H]2C1` [Z248-1, (6aR)-8-acryloyl-1-((2S,6S)-2,6-dimethylmorpholino)-4-chloro-3-(2-fluoro-6-hydroxyphenyl)-6,6a,7,8,9,10-hexahydro-12H-pyrazino[2,1-c]pyrido[3,4-f][1,4]oxazepin-12-one], for which the half-inhibitory concentration (IC50) was found to be 234 nM.

Take `C=CC(=O)N1CCN2C(=O)c3c(N4C(C)COCC4C)nc(-c4c(O)cccc4F)c(Cl)c3OC[C@H]2C1` (stereo partly drawn) [Z252, (6aR)-8-acryloyl-1-(3,5-dimethylmorpholino)-4-chloro-3-(2-fluoro-6-hydroxyphenyl)-6,6a,7,8,9,10-hexahydro-12H-pyrazino[2,1-c]pyrido[3,4-f][1,4]oxazepin-12-one]: the IC50 is 128 nM.

Regarding `C=CC(=O)N1CCN2C(=O)c3c(N4[C@H](C)COC[C@@H]4C)nc(-c4c(O)cccc4F)c(Cl)c3OC[C@H]2C1` [Z252-1, (6aR)-8-acryloyl-1-(3R,5S-dimethylmorpholino)-4-chloro-3-(2-fluoro-6-hydroxyphenyl)-6,6a,7,8,9, 10-hexahydro-12H-pyrazino[2,1-c]pyrido[3,4-f][1,4]oxazepin-12-one], the IC50 was 144 nM.

For `C=CC(=O)N1CCN2C(=O)c3c(N4CCOC(C)(C)C4)nc(-c4c(O)cccc4F)c(F)c3OC[C@H]2C1` [Z255, (6aR)-8-acryloyl-1-(2,2-dimethylmorpholino)-4-fluoro-3-(2-fluoro-6-hydroxyphenyl)-6,6a,7,8,9,10-hexahydro-12H-pyrazino[2,1-c]pyrido[3,4-f][1,4]oxazepin-12-one], the IC50 stood at 32 nM.

In the case of `C=CC(=O)N1CCN2C(=O)c3c(cc(-c4c(O)cccc4F)nc3N3CCOC(C)(C)C3)OC[C@H]2C1` [Z263, (6aR)-8-acryloyl-1-(2,2-dimethylmorpholino)-3-(2-fluoro-6-hydroxyphenyl)-6,6a,7,8,9,10-hexahydro-12H-pyrazino[2,1-c]pyrido[3,4-f][1,4]oxazepin-12-one], the concentration for half-maximal inhibition (IC50) stood at 69 nM.

On to `C=CC(=O)N1CCN2C(=O)c3c(N4CCOCC4)nc(-c4nc(N)ccc4C(F)(F)F)c(Cl)c3OC[C@H]2C1` [Z267], for which the 50% inhibitory concentration (IC50) was 31.3 nM.

For the compound `C=CC(=O)N1CCN2C(=O)c3c(N4CCC[C@]4(C)CO)nc(-c4c(O)cccc4F)c(Cl)c3OC[C@H]2C1` [Z279-1], the half-maximal inhibitory concentration (IC50) stood at 185 nM.

Take `C=CC(=O)N1CCN2C(=O)c3c(C4=CCN(C)CC4C)nc(-c4c(O)cccc4F)c(Cl)c3OC[C@H]2C1` (stereo partly drawn) [Z304, (6aR)-8-acryloyl-4-chloro-1-(1,3-dimethyl-1,2,3,6-tetrahydropyridin-4-yl)-3-(2-fluoro-6-hydroxyphenyl)-6,6a,7,8,9,10-hexahydro-12H-pyrazino[2,1-c]pyrido[3,4-f]oxazepin-12-one]: the concentration for half-maximal inhibition (IC50) came out at 161 nM.

For `C=CC(=O)N1CCN2C(=O)c3c(N4CCC45CCC5)nc(-c4c(O)cccc4F)c(Cl)c3OC[C@H]2C1` [Z309, (6aR)-8-acryloyl-4-chloro-3-(2-fluoro-6-hydroxyphenyl)-1-(1-azaspiro[3.3]heptan-1-yl)-6,6a,7,8,9,10-hexahydro-12H-pyrazino[2,1-c]pyrido[3,4-f][1,4]oxazepin-12-one], the IC50 turned out to be 291 nM.

As to `C=CC(=O)N1CCN2C(=O)c3c(N4CCN5CCC[C@H]5C4)nc(-c4c(O)cccc4F)c(Cl)c3OC[C@H]2C1` [Z317-1, (6aR)-8-acryloyl-4-chloro-3-(2-fluoro-6-hydroxyphenyl)-1-((S)-hexahydropyrrolo[1,2-a]pyrazin-2(1H)-yl)-6,6a,7,8,9,10-hexahydro-12H-pyrazino[2,1-c]pyrido[3,4-f][1,4]oxazepin-12-one], the IC50 is 54.1 nM.

With `C=CC(=O)N1CCN2C(=O)c3c(N4CCOCC4)nc(-c4c(O)cccc4F)c(F)c3OC[C@H]2C1` [Z329, (6aR)-8-acryloyl-1-(morpholino)-4-fluoro-3-(2-fluoro-6-hydroxyphenyl)-6,6a,7,8,9,10-hexahydro-12H-pyrazino[2,1-c]pyrido[3,4-f][1,4]oxazepin-12-one], the IC50 stood at 137 nM.
